The results in this text go back to ChEMBL document CHEMBL5634070, “Assessment of the structure-activity relationship and antileukemic activity of diacylpyramide compounds as human ClpP agonists” (Eur J Med Chem, 2023).

In assay [1] the target is T1, ATP-dependent Clp protease proteolytic subunit, mitochondrial (Homo sapiens, UniProt Q16740). Nature of the assay: Agonist activity at human CLpP by measuring alpha-casein hydrolysis using alpha-casein as substrate preincubated for 10 mins followed by substrate addition and measured after 120 mins by Coomassie brilliant blue staining based SDS-PAGE assay.
T1 sequence (Q16740 whole entry): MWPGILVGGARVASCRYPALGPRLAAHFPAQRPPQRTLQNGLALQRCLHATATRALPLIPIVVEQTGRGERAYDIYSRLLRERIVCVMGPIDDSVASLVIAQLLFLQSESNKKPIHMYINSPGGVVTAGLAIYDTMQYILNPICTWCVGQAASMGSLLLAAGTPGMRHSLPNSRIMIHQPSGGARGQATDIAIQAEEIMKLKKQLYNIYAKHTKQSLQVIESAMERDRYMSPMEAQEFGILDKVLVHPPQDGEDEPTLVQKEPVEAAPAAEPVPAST
The subject of another assay is MOLM-13. Nature of the assay: Antiproliferative activity against human MOLM-13 cells assessed as inhibition of cell growth at 20 uM by CCK-8 assay relative to control. It is filed as functional. Background: Tetrazolium assays rely on reduction of a dye to a coloured formazan, in cell work by metabolically active cells.
For assay [2], the target named is T1, ATP-dependent Clp protease proteolytic subunit, mitochondrial. The assay is described as follows: Agonist activity at human CLpP by measuring alpha-casein hydrolysis using alpha-casein as substrate by FITC staining based assay.
The target is the same in assay [3]. Nature of the assay: Binding affinity to human CLpP assessed as change in melting temperature by DSF assay. As to conditions: filed as agonist. In general terms: Differential scanning fluorimetry follows unfolding on heating by fluorescence.
The next assay concerns NB-4. The assay is described as follows: Inhibition of colony formation in human NB4 cells incubated for 14 days. It is filed as functional, cell-based. The following applies: time 14.0 day.

The inhibition is the percentage by which the read-out fell short of the control. In general, ΔTm refers to the shift of the melting midpoint relative to a reference.

On to `CC[C@H](C)[C@H]1C(=O)N(Cc2cccc3ccccc23)C[C@@H]2N(C(=O)NCc3ccc(F)c(Br)c3)CCC(=O)N12`, for which the EC50 in assay [1] is 3.6 µM. The inhibition at 20 µM in the assay on MOLM-13 was found to be 97.6%.
In turn, `CC[C@H](C)[C@H]1C(=O)N(Cc2cccc3c2OCO3)C[C@@H]2N(C(=O)NCc3ccc(Br)cc3)CCC(=O)N12` gave an EC50 in assay [1] of 14.9 µM. In the assay with MOLM-13, the inhibition at 20 µM turned out to be 44.4%.
Regarding `CC[C@H](C)[C@H]1C(=O)N(Cc2cccc3ccccc23)C[C@@H]2N(C(=O)NCc3ccc(F)c(Cl)c3)CCC(=O)N12`, the EC50 in assay [1] turned out to be 3.4 µM. Besides, in the assay on MOLM-13, the inhibition at 20 µM amounted to 97.9%.
For the compound `O=C1[C@H](Cc2ccc(O)cc2)N2C(=O)CCN(C(=O)NCc3ccccc3)[C@H]2CN1Cc1cccc2ccccc12`, the EC50 in assay [1] amounted to 7.1 µM. Also, in the assay with MOLM-13, the inhibition at 20 µM was 86.9%.
The matching figures for `CC[C@H](C)[C@H]1C(=O)N(Cc2cccc3ccccc23)C[C@@H]2N(C(=O)NCc3ccc4c(c3)OCO4)CCC(=O)N12`: 5.8 µM and 78.6%.
The matching figures for `CC[C@H](C)[C@H]1C(=O)N(Cc2cccc3ccccc23)C[C@@H]2N(C(=O)NCc3ccc(F)c(OC)c3)CCC(=O)N12`: 5.4 µM and 98.1%.
The matching figures for `CC[C@H](C)[C@H]1C(=O)N(Cc2cccc3ccccc23)C[C@@H]2N(C(=O)NCc3cc(F)c(Br)c(F)c3)CCC(=O)N12`: 3.6 µM and 99.1%.
`CC[C@H](C)[C@H]1C(=O)N(Cc2cccc3ccccc23)C[C@@H]2N(C(=O)NCc3ccccc3)CCC(=O)N12` returned an EC50 in assay [1] of 7.8 µM. In addition, the inhibition at 20 µM in the assay on MOLM-13 was determined as 97.9%.
In assay [1], `CC[C@H](C)[C@H]1C(=O)N(Cc2cccc3ccccc23)C[C@@H]2N(C(=O)NCc3ccc(Cl)cc3)CCC(=O)N12` registered an EC50 of 2.7 µM. The inhibition at 20 µM with MOLM-13 worked out at 98.3%.
Turning to `CC[C@H](C)[C@H]1C(=O)N(Cc2cccc3ccccc23)C[C@@H]2N(C(=O)NCC3CCCCC3)CCC(=O)N12`, in assay [1], the EC50 came out at 11.2 µM. Besides, the inhibition at 20 µM in the assay with MOLM-13 turned out to be 99.5%.
With `CSCC[C@H]1C(=O)N(Cc2cccc3ccccc23)C[C@@H]2N(C(=O)NCc3ccccc3)CCC(=O)N21`, the EC50 in assay [1] came out at 15.9 µM. The inhibition at 20 µM with MOLM-13 was found to be 24.4%.
The like results for `CC[C@H](C)[C@H]1C(=O)N(Cc2cccc3ccccc23)C[C@@H]2N(C(=O)NCc3c(F)cc(Br)cc3F)CCC(=O)N12` were, in that order, above 25 µM and 99.1%.
In turn, `O=C1[C@H](Cc2cnc[nH]2)N2C(=O)CCN(C(=O)NCc3ccccc3)[C@H]2CN1Cc1cccc2ccccc12` returned an EC50 in assay [1] of 22.8 µM. Moreover, the inhibition at 20 µM in the assay with MOLM-13 stood at 13.4%.
Take `CCCCNC(=O)N1CCC(=O)N2[C@@H]([C@@H](C)CC)C(=O)N(Cc3cccc4ccccc34)C[C@H]12`: the EC50 in assay [1] amounted to 4.6 µM. Also, the inhibition at 20 µM with MOLM-13 is 23.6%.
Turning to `CC[C@H](C)[C@H]1C(=O)N(Cc2cccc3ccccc23)C[C@@H]2N(C(=O)NCc3ccc(C(F)(F)F)cc3)CCC(=O)N12`, the EC50 in assay [1] worked out at 7.7 µM. Further, in the assay on MOLM-13, the inhibition at 20 µM was found to be 95.3%.
The matching figures for `CC[C@H](C)[C@H]1C(=O)N(Cc2cccc3ccccc23)C[C@@H]2N(C(=O)NCc3ccc(F)cc3Cl)CCC(=O)N12`: 8.7 µM and 99.8%.
Take `CC[C@H](C)[C@H]1C(=O)N(Cc2ccc(F)c3ccccc23)C[C@@H]2N(C(=O)NCc3ccc(Br)cc3)CCC(=O)N12`: the EC50 in assay [1] turned out to be 3.8 µM. In the assay on MOLM-13, the inhibition at 20 µM amounted to 97.7%.
`CC[C@H](C)[C@H]1C(=O)N(Cc2cccc3ccccc23)C[C@@H]2N(C(=O)CCc3ccccc3)CCC(=O)N12`: the EC50 in assay [1] was found to be 14.1 µM. Further, in the assay on MOLM-13, the inhibition at 20 µM was 92%.
The like results for `O=C1[C@H](Cc2ccccc2)N2C(=O)CCN(C(=O)NCc3ccccc3)[C@H]2CN1Cc1cccc2ccccc12` were, in that order, 14.4 µM and 34%.
In turn, `CC[C@H](C)[C@H]1C(=O)N(Cc2cccc3ccccc23)C[C@@H]2N(C(=O)NCc3cc(Br)cc(Br)c3)CCC(=O)N12` yielded an EC50 in assay [1] above 25 µM. For the same compound, the inhibition at 20 µM in the assay on MOLM-13 stood at 98.4%.
The matching figures for `CC[C@H](C)[C@H]1C(=O)N(Cc2cccc3ccccc23)C[C@@H]2N(C(=O)NCc3ccc(OC)cc3)CCC(=O)N12`: 3.4 µM and 99.4%.
The like results for `CC[C@H](C)[C@H]1C(=O)N(Cc2cccc3ccccc23)C[C@@H]2N(C(=O)NCc3ccc(I)cc3)CCC(=O)N12` were, in that order, 5.2 µM and 97.5%.
The like results for `CC[C@H](C)[C@H]1C(=O)N(Cc2cccc3ccccc23)C[C@@H]2N(C(=O)NCc3ccc(C(C)C)cc3)CCC(=O)N12` were, in that order, above 25 µM and 97.7%.
As to `CC[C@H](C)[C@H]1C(=O)N(Cc2cccc3ccccc23)C[C@@H]2N(C(=O)NC(C)(C)c3ccccc3)CCC(=O)N12`, in assay [1], the EC50 was found to be 4.3 µM. In addition, the inhibition at 20 µM in the assay on MOLM-13 was 46.3%.
Turning to `NC(=O)C[C@H]1C(=O)N(Cc2cccc3ccccc23)C[C@@H]2N(C(=O)NCc3ccccc3)CCC(=O)N21`, the EC50 in assay [1] was above 25 µM. Further, in the assay on MOLM-13, the inhibition at 20 µM worked out at 5.5%.
The matching figures for `CC[C@H](C)[C@H]1C(=O)N(Cc2cccc3ccccc23)C[C@@H]2N(C(=O)NCc3c(F)c(F)c(F)c(F)c3F)CCC(=O)N12`: 15.9 µM and 99.9%.
The matching figures for `CC(C)C[C@H]1C(=O)N(Cc2cccc3ccccc23)C[C@@H]2N(C(=O)NCc3ccccc3)CCC(=O)N21`: 7.2 µM and 82.5%.
The matching figures for `CC[C@H](C)[C@H]1C(=O)N(Cc2cccc3ccccc23)C[C@@H]2N(C(=O)CCc3ccc(F)cc3)CCC(=O)N12`: 10.4 µM and 58.2%.
As for `CC[C@H](C)[C@H]1C(=O)N(Cc2cccc3ccccc23)C[C@@H]2N(C(=O)NCc3ccc(Br)cc3)CCC(=O)N12`, the EC50 in assay [1] came out at 2.8 µM; in assay [2] it was 1.19 µM. Further, the inhibition at 20 µM in the assay with MOLM-13 turned out to be 99.7%. Moreover, the thermal shift (ΔTm) in assay [3] came to 16.4 °C. Besides, in the assay on NB-4, the inhibition result was “Dose-Dependent Effect”.
Turning to `CC[C@H](C)[C@H]1C(=O)N(Cc2cccc3ccccc23)C[C@@H]2N(C(=O)NCc3cc(F)c(F)c(F)c3)CCC(=O)N12`, the EC50 in assay [1] came to 10.9 µM. In the assay on MOLM-13, the inhibition at 20 µM was found to be 99.5%.
Compound `CC[C@H](C)[C@H]1C(=O)N(Cc2ccc3ccccc3c2)C[C@@H]2N(C(=O)NCc3ccc(Br)cc3)CCC(=O)N12` showed an EC50 in assay [1] above 25 µM. The inhibition at 20 µM in the assay on MOLM-13 came out at 13.2%.
In the case of `CC[C@H](C)[C@H]1C(=O)N(Cc2cccc3ccccc23)C[C@@H]2N(C(=O)NCc3ccc(Br)cc3F)CCC(=O)N12`, the EC50 in assay [1] worked out at 5.6 µM. Further, the inhibition at 20 µM with MOLM-13 came out at 98%.
The compound `CC[C@H](C)[C@H]1C(=O)N(Cc2cccc3ccccc23)C[C@@H]2N(C(=O)NCc3ccc4ccccc4c3)CCC(=O)N12` gave an EC50 in assay [1] of 10.6 µM. In the assay on MOLM-13, the inhibition at 20 µM was determined as 99.3%.
For the compound `CC[C@H](C)[C@H]1C(=O)N(Cc2cccc3ccccc23)C[C@@H]2N(C(=O)NCC3CCOCC3)CCC(=O)N12`, the EC50 in assay [1] was above 25 µM. In addition, the inhibition at 20 µM with MOLM-13 was found to be 6.3%.
The matching figures for `CC[C@H](C)[C@H]1C(=O)N(Cc2cccc3ccccc23)C[C@@H]2N(C(=O)NCc3ccc(C)cc3)CCC(=O)N12`: 3.3 µM and 99.4%.
The like results for `CC[C@H](C)[C@H]1C(=O)N(Cc2cccc3ccccc23)C[C@@H]2N(C(=O)NCc3ccc(F)c(F)c3)CCC(=O)N12` were, in that order, 3.7 µM and 99.6%.
The matching figures for `CC[C@H](C)[C@H]1C(=O)N(Cc2cccc3ccccc23)C[C@@H]2N(C(=O)NCc3ccc(OC)c(OC)c3)CCC(=O)N12`: above 25 µM and 35.2%.
